# According to publication PMC11241527, “Long-Chain Alkylthio Cyclodextrin Derivatives for Modulation of Quorum-Sensing-Based Bioluminescence in Aliivibrio fischeri Model System” (International Journal of Molecular Sciences, 2024):
# Where two headings read alike, the source gives them in different places.
# Columns and labels:
# A. fischeri [1] = experiment: Cell viability, tetrazolium (MTT) reduction assay; format: cell-based, Aliivibrio fischeri; conditions: 120 min; for inhibitive effect on cell viability, maximum: 0.08 mM; for inhibition in the viability: 10 mM
# Protocol: The cell viability assay characterizing the activity of the hydrogen transport (the dehydrogenase enzyme activity) is based on the spectrophotometric measurement of the absorbance of a formazan product of the reduction in the tetrazolium salts.
# The absorbance—which we determined after 120 min of exposure—is directly proportional to the metabolic activity of the cells.
# To examine the potential influence of the CDs on the vitality of the bacteria, an enzyme activity assay was applied using 3-(4,5-dimethylthiazol-2-yl)-2,5-diphenyltetrazolium bromide (MTT).
# Metabolically active cells reduce the […] MTT into a black formazan product, whose concentration is directly proportional to the activity of the viable cells. Following the population growth assay, the assay was performed in the same microplates by adding 30 μL of 4 mg/mL sterile MTT solution to each well.
# The microtiter plate was then incubated for 30 min until color development.
# A. fischeri [2] = experiment: Bioluminescence inhibition assay in the Aliivibrio fischeri model system; format: cell-based; conditions: for EC20: 20% inhibition of bioluminescence after 120 min exposure; for inhibition at 2000 µM: read-out: inhibition of bioluminescence; for inhibitory effect on bioluminescence, upper limit in any case: any tested concentration and time, not statistically significant
# Protocol: The time- and concentration-dependent effect of native α- and β-CDs, their N,N,N-trimethyl-ammoniopropyl derivatives, and novel alkylthio derivatives were tested in a series of short-term (30–120 min) experiments at 0.008–10 mM concentration range. To differentiate between the quorum-quenching effect and the cytotoxic effect of the CDs, bioluminescence as well as cell viability (the population growth and the enzyme activity) were determined.
# (§1) The bacterial strain A. fischeri (NRRL B-111 77) was cultured and maintained in the laboratory under axenic circumstances. The 16 h old (overnight) cell culture applied for the tests was prepared by inoculating 30 mL of Photobacterium medium with an ampoule of lyophilized bacteria. The culture was shaken in the dark at 160 rpm, 24 °C, to an optical density of 0.6 at 600 nm (OD600).
# The tested CD molecules were suspended in sterile distilled water and sterilized in an autoclave. A dilution series was prepared from the stock solutions (suspensions), covering a 0.04–50 mM concentration range.
# The experiments were carried out with overnight A. fischeri cell culture in 96-well microtiter plates with a total volume of 250 µL. Fifty microliters of the members of the fivefold dilution series made from stock solutions were added to the wells of a sterile, transparent, 96-well, round-bottomed Sarstedt microtiter plate in four replicates. Distilled water was used as a negative control in the same volume.
# To ensure the validity of data and verify the sensitivity of the bacteria, a five-member CuSO4 dilution series (1.6 ppm, 8 ppm, 40 ppm, 200 ppm, and […]) was used as a positive control. After that, 200 μL of the diluted overnight culture was added to the wells, except for the blank samples, for which 200 μL of Photobacterium medium was added instead.
# The bioluminescence intensity was measured with a Fluostar Optima microplate reader (BMG Labtech, Ortenberg, Germany; fluorescence detection limit > 30 amol/well ATP) after 30, 60, and 120 min of exposure. The evaluation of the results was carried out as described by Ujaczki et al. (2015).
# The determination of the concentration–response relationship is a method employed in the field of environmental toxicology, with the objective of objectively assessing the effects of different chemicals. The effective concentration endpoints (EC20 and EC50 values) of the tests are uniformly used for the quantification and comparison of the effects of chemicals and environmental matrices.
# A. fischeri [3] = experiment: Optical density measurement, population growth assay; format: cell-based, Aliivibrio fischeri; conditions: for inhibition at 10000 µM: 10 mM; for inhibition at 2000 µM: 2 mM, read-out: inhibition of cell proliferation (population growth), maximum; for inhibition of population growth (optical density): within 30, 60 and 120 min, regardless of the concentration
# Protocol: as §1
# The measurements were carried out as described by Molnár et al. (2021). The OD was measured after the incubation period, following the bioluminescence inhibition assay with DIALAB ELx800 ELISA Microplate Reader (Dialab GmbH, Wiener Neudorf, Austria) at the wavelength of 630 nm.
# [4] = Solubility in water at 25 °C; format: physicochemical; conditions: for solubility: read-out: WS, water solubility
# Protocol: The characteristics: abbreviations (A), the molecular weight (MW), the solubility in water at 25 °C (WS), and the degree of substitution (DS) of the tested CDs are presented in Table 4 and Table 5.
# A. fischeri [5] = system: A. fischeri; design: method as in PMID 33321169; conditions: cited from earlier work
# [6] = Aggregation studies by dynamic light scattering (volume particle size distribution); format: physicochemical; conditions: 1% aqueous solution, 25 °C
# Protocol: Most CDs are prone to aggregation in aqueous solution due to their numerous hydroxyl moieties.
# The aggregation behavior (nanoparticle formation) was studied by photon correlation spectroscopy (dynamic light scattering) using Malvern Zetasizer Nano ZS (Malvern Instruments, Malvern, UK) equipment at 25 °C using 1% aqueous solution.
# [7] = Aliivibrio fischeri, 0.5 h, 30 min
# [8] = Aliivibrio fischeri, 1 h, 60 min
# [9] = Aliivibrio fischeri, 2 h, 120 min
molecule,measurement,setting,value
"CCCCCCCCCCCCSC[C@H]1O[C@@H]2O[C@H]3[C@H](O)[C@@H](O)[C@@H](O[C@H]4[C@H](O)[C@@H](O)[C@@H](O[C@H]5[C@H](O)[C@@H](O)[C@@H](O[C@H]6[C@H](O)[C@@H](O)[C@@H](O[C@H]7[C@H](O)[C@@H](O)[C@@H](O[C@H]1[C@H](O)[C@H]2O)O[C@@H]7CO)O[C@@H]6CO)O[C@@H]5CO)O[C@@H]4CO)O[C@@H]3CO [6S-C12-α-CD (3), 6-monodeoxy-6-monododecanethiol-α-CD]","decrease in cell viability, maximum",A. fischeri [1]; at 2 and 10 mM,40%
same,decrease in bioluminescence intensity,"A. fischeri [2]; 0.4 mM, 120 min",71%
same,decrease in bioluminescence intensity,"A. fischeri [2]; 10 mM, 120 min",79%
same,EC20,A. fischeri [2],60 µM
same,EC50,"A. fischeri [2]; Aliivibrio fischeri, 2 h",160 µM
same,inhibition at 2000 µM,"A. fischeri [2]; Aliivibrio fischeri, 2 h",85%
same,inhibition at 10000 µM,A. fischeri [3]; [7],50%
same,inhibition at 10000 µM,A. fischeri [3]; [8],54%
same,inhibition at 10000 µM,A. fischeri [3]; [9],59%
same,solubility,[4],> 10000 µg/mL
"CCCCCCCCCCCCSC[C@H]1O[C@@H]2O[C@H]3[C@H](O)[C@@H](O)[C@@H](O[C@H]4[C@H](O)[C@@H](O)[C@@H](O[C@H]5[C@H](O)[C@@H](O)[C@@H](O[C@H]6[C@H](O)[C@@H](O)[C@@H](O[C@H]7[C@H](O)[C@@H](O)[C@@H](O[C@H]8[C@H](O)[C@@H](O)[C@@H](O[C@H]1[C@H](O)[C@H]2O)O[C@@H]8CO)O[C@@H]7CO)O[C@@H]6CO)O[C@@H]5CO)O[C@@H]4CO)O[C@@H]3CO [6S-C12-β-CD (7), 6-monodeoxy-6-monododecanethiol-β-CD]",vitality-reducing effect (cell viability),A. fischeri [1]; 2 mM,41%
same,EC20,A. fischeri [2],90 µM
same,inhibition at 2000 µM,"A. fischeri [2]; Aliivibrio fischeri, 0.5 h",77%
same,inhibition at 2000 µM,"A. fischeri [2]; Aliivibrio fischeri, 1 h",76%
same,EC50,"A. fischeri [2]; Aliivibrio fischeri, 2 h",760 µM
same,inhibition at 2000 µM,"A. fischeri [2]; Aliivibrio fischeri, 2 h",70%
same,inhibition at 2000 µM,A. fischeri [3]; [7],72%
same,inhibition at 2000 µM,A. fischeri [3]; [8],69%
same,inhibition at 2000 µM,A. fischeri [3]; [9],65%
same,solubility,[4],> 10000 µg/mL
"OC[C@H]1O[C@@H]2O[C@H]3[C@H](O)[C@@H](O)[C@@H](O[C@H]4[C@H](O)[C@@H](O)[C@@H](O[C@H]5[C@H](O)[C@@H](O)[C@@H](O[C@H]6[C@H](O)[C@@H](O)[C@@H](O[C@H]7[C@H](O)[C@@H](O)[C@@H](O[C@H]8[C@H](O)[C@@H](O)[C@@H](O[C@H]1[C@H](O)[C@H]2O)O[C@@H]8CO)O[C@@H]7CO)O[C@@H]6CO)O[C@@H]5CO)O[C@@H]4CO)O[C@@H]3CO [β-CD (5), Native β-CD, reference compound]","inhibitive effect on cell viability, maximum",A. fischeri [1],15%
same,"inhibitory effect on bioluminescence, upper limit in any case",A. fischeri [2],≤ 35%
same,inhibition at 80 µM,"A. fischeri [3]; Aliivibrio fischeri, 0.5 h, read-out: inhibition of population growth, maximum",≤ 34%
OC[C@H]1O[C@@H]2O[C@H]3[C@H](O)[C@@H](O)[C@@H](O[C@H]4[C@H](O)[C@@H](O)[C@@H](O[C@H]5[C@H](O)[C@@H](O)[C@@H](O[C@H]6[C@H](O)[C@@H](O)[C@@H](O[C@H]7[C@H](O)[C@@H](O)[C@@H](O[C@H]8[C@H](O)[C@@H](O)[C@@H](O[C@H]9[C@H](O)[C@@H](O)[C@@H](O[C@H]1[C@H](O)[C@H]2O)O[C@@H]9CO)O[C@@H]8CO)O[C@@H]7CO)O[C@@H]6CO)O[C@@H]5CO)O[C@@H]4CO)O[C@@H]3CO [γ-CD],quorum-quenching efficacy (reduction of bacterial bioluminescence),A. fischeri [5]; previous study,ineffective
"N,N,N-Trimethylammoniopropyl-6-monodeoxy-6-monodecanethiol-α-CD [QA-6S-C10-α-CD (4)]",inhibition of the enzyme activity (cell viability),A. fischeri [1]; regardless of concentration,24–27%
same,reduction of bioluminescence,"A. fischeri [2]; 1 mM, 120 min",69%
same,EC20,A. fischeri [2],200 µM
same,EC50,"A. fischeri [2]; 50% inhibition of bioluminescence after 120 min exposure, read-out: EC50",240 µM
same,inhibition of population growth (optical density),A. fischeri [3],up to 30%
"N,N,N-Trimethylammoniopropyl-6-monodeoxy-6-monohexadecanethiol-β-CD [QA-6S-C16-β-CD (9)]",inhibition of cell viability,A. fischeri [1]; 5 mM,35%
same,"inhibitory effect (QS inhibition, bioluminescence)","A. fischeri [2]; 1 mM, time not stated",48%
same,EC20,A. fischeri [2],170 µM
same,average size of larger aggregates,[6],111 nm
same,size of larger aggregates with high polydispersity,[6],50–500 nm
same,inhibition of population growth,"A. fischeri [3]; 5 mM, 120 min",38%
same,"WS, water solubility",[4],~10000 µg/mL
"N,N,N-Trimethylammoniopropyl-α-CD [QA-α-CD (2), reference compound]",inhibition in the viability,A. fischeri [1],41%
same,EC20,A. fischeri [2],3140 µM
same,inhibition of bioluminescence (significance),"A. fischeri [2]; tested concentrations 0.08-10 mM, examined period 30-120 min",no significant inhibition
same,inhibition of population growth (optical density),A. fischeri [3],up to 30%
"N,N,N-Trimethylammoniopropyl-β-CD [QA-β-CD (6), reference compound]","inhibitive effect on cell viability, maximum",A. fischeri [1],10%
same,"inhibitory effect on bioluminescence, upper limit in any case",A. fischeri [2],≤ 35%
same,"inhibition of population growth, maximum","A. fischeri [3]; 0.08 mM, 30 min of exposure",≤ 34%
same,"WS, water solubility",[4],>500000 µg/mL
"Native α-CD [α-CD (1), reference compound]",inhibition in the viability,A. fischeri [1],29%
same,inhibition of bioluminescence (significance),A. fischeri [2],no significant inhibition
same,EC20,A. fischeri [2],80 µM
same,inhibition of bioluminescence,"A. fischeri [5]; 10 mM, 120 min exposure time",over 60%
same,inhibition of population growth (optical density),A. fischeri [3],up to 30%
